Measured values as given in patent US11053204B2, “Pyrimidinyloxy benzene derivatives as herbicides” (FMC Corporation, priority 2015, dated 2021).

Tests used:
Format in all cases: in vivo
[1] = system: ragweed (common ragweed, Ambrosia elatior); experiment: Test A preemergence, visual injury rating; details: for Ragweed plant response rating: 0 to 100 scale (0 no effect, 100 complete control)
In short: (§1)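 Compounds in non-phytotoxic solvent with surfactant applied as soil spray preemergence, or postemergence to plants 2-10 cm at one- to two-leaf stage, in loam/sand. After approximately 10 days in greenhouse, injury rated visually versus untreated controls, 0 (no effect) to 100 (complete control).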

[2] = system: barnyardgrass (Echinochloa crus-galli); experiment: Test A preemergence, visual injury rating; details: for Barnyardgrass plant response rating: 0 to 100 scale (0 no effect, 100 complete control)
In short: as §1

[3] = system: kochia (Kochia scoparia); experiment: Test A preemergence, visual injury rating; details: for Kochia plant response rating: 0 to 100 scale (0 no effect, 100 complete control)
In short: as §1

[4] = system: Italian ryegrass (Lolium multiflorum); experiment: Test A preemergence, visual injury rating; details: for Ryegrass, Italian plant response rating: 0 to 100 scale (0 no effect, 100 complete control)
In short: as §1

[5] = system: pigweed (Amaranthus retroflexus); experiment: Test A preemergence, visual injury rating; details: for Pigweed plant response rating: 0 to 100 scale (0 no effect, 100 complete control)
In short: as §1

[6] = system: giant foxtail (Setaria faberii); experiment: Test A preemergence, visual injury rating; details: for Foxtail, Giant plant response rating: 0 to 100 scale (0 no effect, 100 complete control)
In short: as §1

[7] = system: corn (Zea mays); experiment: Test A postemergence, visual injury rating; details: 0 is no effect, 100 is complete control
Text: (§2) Seeds of plant species selected from barnyardgrass (Echinochloa crus-galli), kochia (Kochia scoparia), ragweed (common ragweed, Ambrosia elatior), Italian ryegrass (Lolium multiflorum), large (Lg) crabgrass (Digitaria sanguinalis), giant foxtail (Setaria faberii), morningglory (Ipomoea spp.), pigweed (Amaranthus retroflexus), velvetleaf (Abutilon theophrasti), wheat (Triticum aestivum), and corn (Zea mays) were planted into a blend of loam soil and sand and treated preemergence with a directed soil spray using test chemicals formulated in a non-phytotoxic solvent mixture which included a surfactant.
(§3) At the same time, plants selected from these crop and weed species and also blackgrass (Alopecurus myosuroides), and galium (catchweed bedstraw, Galium aparine) were planted in pots containing the same blend of loam soil and sand and treated with postemergence applications of test chemicals formulated in the same manner. Plants ranged in height from 2 to 10 cm and were in the one- to two-leaf stage for the postemergence treatment. Treated plants and untreated controls were maintained in a greenhouse for approximately 10 days, after which time all treated plants were compared to untreated controls and visually evaluated for injury. Plant response ratings, summarized in Table A, are based on a 0 to 100 scale where 0 is no effect and 100 is complete control. A dash (-) response means no test result.

[8] = system: blackgrass (Alopecurus myosuroides); experiment: Test A postemergence, visual injury rating; details: 0 is no effect, 100 is complete control
Text: as §2, §3

[9] = system: galium (catchweed bedstraw, Galium aparine); experiment: Test A postemergence, visual injury rating; details: 0 is no effect, 100 is complete control
Text: as §2, §3

[10] = system: wheat (Triticum aestivum); experiment: Test A postemergence, visual injury rating; details: 0 is no effect, 100 is complete control
Text: as §2, §3

[11] = system: ragweed (common ragweed, Ambrosia elatior); experiment: Test A postemergence, visual injury rating; details: 0 is no effect, 100 is complete control
Text: as §2, §3

[12] = system: barnyardgrass (Echinochloa crus-galli); experiment: Test A postemergence, visual injury rating; details: 0 is no effect, 100 is complete control
Text: as §2, §3

[13] = system: kochia (Kochia scoparia); experiment: Test A postemergence, visual injury rating; details: 0 is no effect, 100 is complete control
Text: as §2, §3

[14] = system: Italian ryegrass (Lolium multiflorum); experiment: Test A postemergence, visual injury rating; details: 0 is no effect, 100 is complete control
Text: as §2, §3

[15] = system: pigweed (Amaranthus retroflexus); experiment: Test A postemergence, visual injury rating; details: 0 is no effect, 100 is complete control
Text: as §2, §3

[16] = system: giant foxtail (Setaria faberii); experiment: Test A postemergence, visual injury rating; details: 0 is no effect, 100 is complete control
Text: as §2, §3

[17] = system: rice (Oryza sativa); experiment: Test B flooded paddy test, plant response rating; details: 250 g ai/ha; Flood; scale of 0 to 100 where 0 is no effect and 100 is complete control; 13 to 15 days
In short: (§4)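 Flooded 3 cm over soil; compound into paddy water; depth kept constant. Greenhouse 13–15 d.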

[18] = system: sedge, umbrella (small-flower umbrella sedge, Cyperus difformis); experiment: Test B flooded paddy test, plant response rating; details: 250 g ai/ha; Flood; scale of 0 to 100 where 0 is no effect and 100 is complete control; 13 to 15 days
In short: as §4

[19] = system: barnyardgrass (Echinochloa crus-galli); experiment: Test B flooded paddy test, plant response rating; details: 250 g ai/ha; Flood; scale of 0 to 100 where 0 is no effect and 100 is complete control; 13 to 15 days
In short: as §4

[20] = system: ducksalad (Heteranthera limosa); experiment: Test B flooded paddy test, plant response rating; details: 250 g ai/ha; Flood; scale of 0 to 100 where 0 is no effect and 100 is complete control; 13 to 15 days
In short: as §4

[21] = 31 g ai/ha, 0 to 100 scale, 0 no effect, 100 complete control
[22] = 31 g ai/ha, 0 to 100 scale, approximately 10 days

CC(CN(C)C(=O)c1c(Br)cccc1Oc1ncc(Cl)cn1)C(F)(F)F (stereo not drawn) [Compound 18]
0: Ragweed plant response rating ([1]; 125 g ai/ha) | Ragweed plant response rating ([1]; 500 g ai/ha) | Barnyardgrass plant response rating ([2]; 125 g ai/ha) | Barnyardgrass plant response rating ([2]; 500 g ai/ha) | Kochia plant response rating ([3]; 125 g ai/ha) | Ryegrass, Italian plant response rating ([4]; 125 g ai/ha) | Ryegrass, Italian plant response rating ([4]; 500 g ai/ha) | Foxtail, Giant plant response rating ([6]; 125 g ai/ha) | Foxtail, Giant plant response rating ([6]; 500 g ai/ha) | Corn plant response rating (0 to 100 scale) ([7]; 125 g ai/ha) | Corn plant response rating (0 to 100 scale) ([7]; 500 g ai/ha) | Blackgrass plant response rating (0 to 100 scale) ([8]; 125 g ai/ha) | Blackgrass plant response rating (0 to 100 scale) ([8]; 500 g ai/ha) | Galium plant response rating (0 to 100 scale) ([9]; 125 g ai/ha) | Galium plant response rating (0 to 100 scale) ([9]; 500 g ai/ha) | Wheat plant response rating (0 to 100 scale) ([10]; 125 g ai/ha) | Wheat plant response rating (0 to 100 scale) ([10]; 500 g ai/ha) | Ragweed plant response rating (0 to 100 scale) ([11]; 125 g ai/ha) | Ragweed plant response rating (0 to 100 scale) ([11]; 500 g ai/ha) | Barnyardgrass plant response rating (0 to 100 scale) ([12]; 125 g ai/ha) | Barnyardgrass plant response rating (0 to 100 scale) ([12]; 500 g ai/ha) | Kochia plant response rating (0 to 100 scale) ([13]; 125 g ai/ha) | Ryegrass, Italian plant response rating (0 to 100 scale) ([14]; 125 g ai/ha) | Ryegrass, Italian plant response rating (0 to 100 scale) ([14]; 500 g ai/ha) | Foxtail, Giant plant response rating (0 to 100 scale) ([16]; 125 g ai/ha) | Foxtail, Giant plant response rating (0 to 100 scale) ([16]; 500 g ai/ha) | Plant response rating, Rice [17] | Plant response rating, Sedge, Umbrella [18] | Plant response rating, Barnyardgrass [19] | Plant response rating, Ducksalad [20]
10: Kochia plant response rating ([3]; 500 g ai/ha) | Pigweed plant response rating ([5]; 125 g ai/ha) | Kochia plant response rating (0 to 100 scale) ([13]; 500 g ai/ha) | Pigweed plant response rating (0 to 100 scale) ([15]; 125 g ai/ha)
20: Pigweed plant response rating (0 to 100 scale) ([15]; 500 g ai/ha)
40: Pigweed plant response rating ([5]; 500 g ai/ha)

CN(CCC(F)(F)F)C(=O)c1c(Br)cccc1Oc1ncc(Cl)cn1 [Compound 19]
10: Pigweed plant response rating [15, 22] | Pigweed plant response rating (0 to 100 scale) ([15]; 125 g ai/ha)
0: Plant response rating, Ragweed [1, 21] | Ragweed plant response rating ([1]; 125 g ai/ha) | Plant response rating, Barnyardgrass [2, 21] | Barnyardgrass plant response rating ([2]; 125 g ai/ha) | Plant response rating, Kochia [3, 21] | Plant response rating, Ryegrass, Italian [4, 21] | Ryegrass, Italian plant response rating ([4]; 125 g ai/ha) | Plant response rating, Pigweed [5, 21] | Plant response rating, Foxtail, Giant [6, 21] | Foxtail, Giant plant response rating ([6]; 125 g ai/ha) | Corn plant response rating [7, 22] | Corn plant response rating (0 to 100 scale) ([7]; 125 g ai/ha) | Blackgrass plant response rating [8, 22] | Blackgrass plant response rating (0 to 100 scale) ([8]; 125 g ai/ha) | Galium plant response rating [9, 22] | Galium plant response rating (0 to 100 scale) ([9]; 125 g ai/ha) | Wheat plant response rating [10, 22] | Wheat plant response rating (0 to 100 scale) ([10]; 125 g ai/ha) | Ragweed plant response rating [11, 22] | Ragweed plant response rating (0 to 100 scale) ([11]; 125 g ai/ha) | Barnyardgrass plant response rating [12, 22] | Barnyardgrass plant response rating (0 to 100 scale) ([12]; 125 g ai/ha) | Kochia plant response rating [13, 22] | Kochia plant response rating (0 to 100 scale) ([13]; 125 g ai/ha) | Ryegrass, Italian plant response rating [14, 22] | Ryegrass, Italian plant response rating (0 to 100 scale) ([14]; 125 g ai/ha) | Foxtail, Giant plant response rating [16, 22] | Foxtail, Giant plant response rating (0 to 100 scale) ([16]; 125 g ai/ha) | Plant response rating, Rice [17] | Plant response rating, Sedge, Umbrella [18] | Plant response rating, Barnyardgrass [19] | Plant response rating, Ducksalad [20]
20: Kochia plant response rating ([3]; 125 g ai/ha) | Pigweed plant response rating ([5]; 125 g ai/ha)
